{
  "source": "ChEMBL document CHEMBL1212786",
  "about": "(Antimicrob Agents Chemother, 2010)",
  "key": {"CYP1A2 [1]": {"target": "T1, CYP1A2 (Homo sapiens, UniProt P05177)", "T1 sequence (P05177 whole entry)": "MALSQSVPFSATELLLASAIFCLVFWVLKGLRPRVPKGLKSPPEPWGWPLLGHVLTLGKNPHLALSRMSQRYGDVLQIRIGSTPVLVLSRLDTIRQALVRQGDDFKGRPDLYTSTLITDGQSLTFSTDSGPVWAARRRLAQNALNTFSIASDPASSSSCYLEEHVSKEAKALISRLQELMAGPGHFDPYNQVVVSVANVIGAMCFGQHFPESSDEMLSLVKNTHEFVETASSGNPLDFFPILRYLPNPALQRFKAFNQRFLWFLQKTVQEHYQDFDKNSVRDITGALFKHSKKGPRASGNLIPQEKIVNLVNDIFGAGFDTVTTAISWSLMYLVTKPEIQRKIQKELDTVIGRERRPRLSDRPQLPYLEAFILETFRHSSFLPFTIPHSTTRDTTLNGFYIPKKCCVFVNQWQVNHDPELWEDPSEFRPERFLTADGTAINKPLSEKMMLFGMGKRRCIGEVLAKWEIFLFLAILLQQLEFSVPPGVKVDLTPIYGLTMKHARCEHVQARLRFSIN", "test": "Induction of CYP1A2 in human hepatocytes at 1000 uM after 72 hrs relative to control", "format": "ADME, cell-based, Hepatocyte", "settings": "read-out: FC"}, "CYP2B6 [2]": {"target": "T2, CYP2B6 (Homo sapiens, UniProt P20813)", "T2 sequence (P20813 whole entry)": "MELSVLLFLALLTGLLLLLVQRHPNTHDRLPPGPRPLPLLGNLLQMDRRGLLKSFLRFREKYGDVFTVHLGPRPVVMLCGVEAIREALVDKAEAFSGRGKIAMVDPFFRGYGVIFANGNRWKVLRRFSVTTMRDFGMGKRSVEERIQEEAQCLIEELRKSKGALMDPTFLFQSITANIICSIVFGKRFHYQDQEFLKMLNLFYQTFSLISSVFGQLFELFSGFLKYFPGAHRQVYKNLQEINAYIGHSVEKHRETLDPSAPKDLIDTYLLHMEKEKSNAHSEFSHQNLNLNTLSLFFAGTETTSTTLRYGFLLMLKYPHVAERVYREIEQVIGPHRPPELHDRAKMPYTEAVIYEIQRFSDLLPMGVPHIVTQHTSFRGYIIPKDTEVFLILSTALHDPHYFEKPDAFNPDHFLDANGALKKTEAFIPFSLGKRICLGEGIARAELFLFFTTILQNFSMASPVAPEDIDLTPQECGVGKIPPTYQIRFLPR", "test": "Induction of CYP2B6 in human hepatocytes at 1000 uM after 72 hrs relative to control", "format": "ADME, cell-based, Hepatocyte", "settings": "read-out: FC"}, "CYP3A4 [3]": {"target": "T3, CYP3A4 (Homo sapiens, UniProt P08684)", "T3 sequence (P08684 whole entry)": "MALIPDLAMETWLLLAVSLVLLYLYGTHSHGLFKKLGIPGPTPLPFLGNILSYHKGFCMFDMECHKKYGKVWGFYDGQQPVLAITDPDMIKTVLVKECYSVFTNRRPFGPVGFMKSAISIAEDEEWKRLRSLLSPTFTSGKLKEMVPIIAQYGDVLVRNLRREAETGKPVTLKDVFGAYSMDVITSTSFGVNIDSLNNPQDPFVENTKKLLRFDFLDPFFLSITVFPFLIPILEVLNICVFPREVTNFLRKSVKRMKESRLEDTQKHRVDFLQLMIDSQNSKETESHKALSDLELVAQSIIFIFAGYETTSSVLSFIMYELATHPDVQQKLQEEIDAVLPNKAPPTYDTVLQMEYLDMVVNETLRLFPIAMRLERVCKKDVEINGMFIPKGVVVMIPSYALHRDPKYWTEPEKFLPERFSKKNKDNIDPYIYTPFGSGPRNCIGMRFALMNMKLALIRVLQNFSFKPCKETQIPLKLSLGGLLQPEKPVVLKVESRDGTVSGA", "test": "Induction of CYP3A4 in human hepatocytes at 1000 uM after 72 hrs relative to control", "format": "ADME, cell-based, Hepatocyte", "settings": "read-out: FC"}, "CYP3A4 [4]": {"target": "T3, CYP3A4", "test": "Induction of CYP3A4 in human hepatocytes at 2 uM after 72 hrs relative to control", "format": "ADME, cell-based, Hepatocyte", "settings": "read-out: FC"}, "CYP1A2 [5]": {"target": "T1, CYP1A2", "test": "Induction of CYP1A2 in human hepatocytes at 2 uM after 72 hrs relative to control", "format": "ADME, cell-based, Hepatocyte", "settings": "read-out: FC"}, "CYP2B6 [6]": {"target": "T2, CYP2B6", "test": "Induction of CYP2B6 in human hepatocytes at 2 uM after 72 hr relative to control", "format": "ADME, cell-based, Hepatocyte", "settings": "read-out: FC"}, "Hepatitis C virus": {"tested_on": "Hepatitis C virus", "test": "Antiviral activity against Hepatitis C virus infected in human Huh7ET cells assessed as inhibition of viral replication after 72 hrs by luciferase reporter gene assay", "format": "functional, organism-based, Hepacivirus hominis", "settings": "Huh-7, 72 h"}, "PBMC": {"tested_on": "PBMC", "test": "Antiinflammatory activity in human PBMC assessed as inhibition of anti-CD3/CD28 antibody-induced IL-2 production treated for 1 hr before anti-CD3/CD28 antibody challenge measured after 6 hrs by immunosuppression assay", "format": "functional, cell-based"}},
  "data": [
    {"smiles": "CCC1(c2ccccc2)C(=O)NC(=O)NC1=O", "note": "[PHENOBARBITAL]", "values": [
      {"measurement": "fold induction at 72 h, 1000 µM", "setting": "CYP1A2 [1]", "result": 1.67},
      {"measurement": "fold induction at 72 h, 1000 µM", "setting": "CYP2B6 [2]", "result": 9.1},
      {"measurement": "fold induction at 72 h, 1000 µM", "setting": "CYP3A4 [3]", "result": 6.73}
    ]},
    {"smiles": "Cc1ccc2cc3c(ccc4ccccc43)c3c2c1CC3", "note": "[3-METHYLCHOLANTHRENE]", "values": [
      {"measurement": "fold induction at 72 h, 2 µM", "setting": "CYP3A4 [4]", "result": 0.97},
      {"measurement": "fold induction at 72 h, 2 µM", "setting": "CYP1A2 [5]", "result": 21.2},
      {"measurement": "fold induction at 72 h, 2 µM", "setting": "CYP2B6 [6]", "result": 1.33}
    ]},
    {"smiles": "C/C=C/C[C@@H](C)[C@@H](O)[C@H]1C(=O)N[C@@H](CC)C(=O)N(C)CC(=O)N(C)[C@@H](CC(C)C)C(=O)N[C@@H](C(C)C)C(=O)N(C)[C@@H](CC(C)C)C(=O)N[C@@H](C)C(=O)N[C@H](C)C(=O)N(C)[C@@H](CC(C)C)C(=O)N(C)[C@@H](CC(C)C)C(=O)N(C)[C@@H](C(C)C)C(=O)N1C", "note": "[CYCLOSPORINE]", "values": [
      {"measurement": "CC50", "setting": "Hepatitis C virus", "result": 5.62, "unit": "µM"},
      {"measurement": "EC50", "setting": "PBMC", "result": 0.0031, "unit": "µM"}
    ]}
  ]
}
